{"source": "patent US20100138957A1", "about": "(priority 2007, published 2010)", "key": {"[1]": {"system": "human intestinal epithelial cells", "details": "cited from earlier work"}, "[2]": {"system": "pathogenic Vibrio bacteria", "details": "intraperitoneal injection, juvenile coho salmon; cited from earlier work"}, "[3]": {"system": "18 bacterial and fungal microorganisms", "details": "cited from earlier work"}, "Pseudomonas aeruginosa": {"system": "Pseudomonas aeruginosa", "details": "cited from earlier work"}, "Xylella fastidiosa": {"system": "Xylella fastidiosa", "details": "in vivo"}}, "data": [{"substance": "Pleurocidin: 25-residue cationic antimicrobial peptide from skin secretions of winter flounder (GWGSFFKKAAHVGKHVGKAALTHYL; Pleurocidin; UniProt P81941 23-47, looked up)", "values": [{"measurement": "cytotoxic effects", "setting": "[1]", "value": "no cytotoxic effects"}, {"measurement": "efficacy against lethal vibriosis compared to CEME", "setting": "[2]", "value": "more effective"}, {"measurement": "microorganisms against which the peptide was effective", "setting": "[3]", "value": "17 of the 18"}]}, {"substance": "KWKLFKKIGIGAVLKV TTGLPALKTLK [CEMA]", "values": [{"measurement": "MIC", "setting": "Pseudomonas aeruginosa", "value": 2.8, "unit": "μg per ml"}]}, {"substance": "MAKWKLFKKIGIGFKKAAHVGKAALTK [B-passerin]", "values": [{"measurement": "time plants survived stringent disease challenges with no or lessened visible symptoms", "setting": "Xylella fastidiosa", "value": "up to 12 months"}, {"measurement": "time surviving plants remained symptomless", "setting": "Xylella fastidiosa", "value": "over 8 months"}, {"measurement": "transgenic plants that survived the high stringency greenhouse test", "setting": "Xylella fastidiosa", "value": 90, "unit": "%"}]}]}
